We go through 19 compounds from US20240083892A1 (BISICHEM CO., LTD., priority 2021, published 2024).

Each structure is given as a SMILES string. A value given as a limit tells only on which side of the number the result lay.

The target of assay [1] is T1, RIPK1 (Homo sapiens, UniProt Q13546).
T1 construct: endogenous in cells; host or cells: HT-29 (KCLB 30038)
T1 sequence (Q13546 1-671): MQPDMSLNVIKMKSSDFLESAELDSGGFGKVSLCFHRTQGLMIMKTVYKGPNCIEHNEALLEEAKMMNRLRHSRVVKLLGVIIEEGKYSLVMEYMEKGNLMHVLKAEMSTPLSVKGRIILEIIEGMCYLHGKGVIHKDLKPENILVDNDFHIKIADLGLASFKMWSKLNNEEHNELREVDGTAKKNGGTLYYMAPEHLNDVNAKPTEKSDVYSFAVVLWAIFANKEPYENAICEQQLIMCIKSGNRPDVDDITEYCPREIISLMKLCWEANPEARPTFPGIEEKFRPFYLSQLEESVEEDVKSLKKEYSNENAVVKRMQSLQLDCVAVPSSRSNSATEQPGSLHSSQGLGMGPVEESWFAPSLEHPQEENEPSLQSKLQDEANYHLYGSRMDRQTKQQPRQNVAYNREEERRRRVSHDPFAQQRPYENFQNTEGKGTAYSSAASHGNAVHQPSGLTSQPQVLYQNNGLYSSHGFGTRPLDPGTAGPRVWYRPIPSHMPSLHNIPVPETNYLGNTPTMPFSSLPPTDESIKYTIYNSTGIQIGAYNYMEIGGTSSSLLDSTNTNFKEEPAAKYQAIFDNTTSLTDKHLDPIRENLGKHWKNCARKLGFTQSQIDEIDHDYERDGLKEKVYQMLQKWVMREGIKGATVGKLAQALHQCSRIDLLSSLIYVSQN
Kind of assay: Cell-based necroptosis assay for RIPK1 activity (cell viability by CCK-8). The conditions noted are these: HT-29 cells; Z-VAD-FMK 20 μM, human TNFα 10 ng/ml, SM-164 100 nM; 24 h; read-out: Cell-base RIPK1 activity: Necroptosis. In outline: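 HT-29 cells pretreated 30 min with 20 μM Z-VAD-FMK, then necroptosis induced with human TNFα 10 ng/ml plus SM-164 100 nM alongside RIPK1 inhibitor (0.0001–10 uM) for 24 h. Viability read by CCK-8.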

Assay [2] has as its target T1, RIPK1. Briefly: Immunoblotting of TNFα induced phospho-RIPK1 (ser 166) levels. In kind it is cell-based. The following applies: HMC3 cells; Z-VAD-FMK, human TNFα 20 ng/ml, SM-164 100 nM; 7 h, serum free media; read-out: Cell-base RIPK1 activity: phspho-RIPK1 (Ser166). In outline:
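HMC3 human microglial cells were pretreated 30 min with Z-VAD-FMK […]. They were then given TNFα 20 ng/ml, SM-164 100 nM and inhibitor (0.1, 1, 10 nM) for 7 h in serum-free medium. BCA-normalised lysates were immunoblotted for phospho-RIPK1 Ser166.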
For orientation: In western blotting, separated proteins are transferred to a membrane and probed.

For `CN1C(=O)[C@@H](NC(=O)n2cc(Cc3cccc(F)c3)cn2)COc2ccc(OCC3CCOCC3)cc21` [Example 55, (S)-4-(3-fluorobenzyl)-N-(5-methyl-4-oxo-7-((tetrahydro-2H-pyran-4-yl)methoxy)-2,3,4,5-tetrahydrobenzo[b][1,4]oxazepin-3-yl)-1H-pyrazole-1-carboxamide], the IC50 in assay [1] and in assay [2] was < 10 nM in each case.
Take `CN1C(=O)[C@@H](NC(=O)n2cc(Cc3cccc(F)c3)cn2)COc2ccc(OC(C)(C)C(=O)N3CCC(C)(O)CC3)cc21` [Example 42, (S)-4-(3-fluorobenzyl)-N-(7-((1-(4-hydroxy-4-methylpiperidin-1-yl)-2-methyl-1-oxopropan-2-yl)oxy)-5-methyl-4-oxo-2,3,4,5-tetrahydrobenzo[b][1,4]oxazepin-3-yl)-1H-pyrazole-1-carboxamide]: the IC50 in assay [1] and in assay [2] was 10 to 50 nM each time.
For the compound `CN1C(=O)[C@@H](NC(=O)n2cc(Cc3cccc(F)c3)cn2)COc2ccc(C(=O)N3CC4(COC4)C3)cc21` [Example 14, (S)-4-(3-fluorobenzyl)-N-(5-methyl-4-oxo-7-(2-oxa-6-azaspiro[3.3]heptane-6-carbonyl)-2,3,4,5-tetrahydrobenzo[b][1,4]oxazepin-3-yl)-1H-pyrazole-1-carboxamide], the IC50 in assay [1] and in assay [2] was 10 to 50 nM each time.
As for `CN1C(=O)[C@@H](NC(=O)n2cc(Cc3cccc(F)c3)cn2)COc2ccc(OCCC(C)(C)O)cc21` [Example 21, (S)-4-(3-fluorobenzyl)-N-(7-(3-hydroxy-3-methylbutoxy)-5-methyl-4-oxo-2,3,4,5-tetrahydrobenzo[b][1,4]oxazepin-3-yl)-1H-pyrazole-1-carboxamide], the IC50 in assay [1] and in assay [2] was < 10 nM throughout.
As for `CN1C(=O)[C@@H](NC(=O)n2cc(Cc3cccc(F)c3)cn2)COc2ccc(OCC(=O)N3CCC(C(C)(C)O)C3)cc21` (stereo partly drawn) [Example 48, 4-(3-fluorobenzyl)-N-((3S)-7-(2-(3-(2-hydroxypropan-2-yl)pyrrolidin-1-yl)-2-oxoethoxy)-5-methyl-4-oxo-2,3,4,5-tetrahydrobenzo[b][1,4]oxazepin-3-yl)-1H-pyrazole-1-carboxamide], the IC50 in assay [1] and in assay [2] was < 10 nM each time.
In the case of `CN1C(=O)[C@@H](NC(=O)n2cc(Cc3cccc(F)c3)cn2)COc2ccc(OCCCc3cccnc3)cc21` [Example 29, (S)-4-(3-fluorobenzyl)-N-(5-methyl-4-oxo-7-(3-(pyridin-3-yl)propoxy)-2,3,4,5-tetrahydrobenzo[b][1,4]oxazepin-3-yl)-1H-pyrazole-1-carboxamide], the IC50 in assay [1] and in assay [2] was < 10 nM each time.
With `CN1C(=O)[C@@H](NC(=O)n2cc(Cc3cccc(F)c3)cn2)COc2ccc(OCc3cnc(Cl)nc3)cc21` [Example 62, (S)—N-(7-((2-chloropyrimidin-5-yl)methoxy)-5-methyl-4-oxo-2,3,4,5-tetrahydrobenzo[b][1,4]oxazepin-3-yl)-4-(3-fluorobenzyl)-1H-pyrazole-1-carboxamide], the IC50 in assay [1] and in assay [2] was < 10 nM in each case.
As to `CN1C(=O)[C@@H](NC(=O)n2cc(Cc3cccc(F)c3)cn2)COc2ccc(C(=O)N3CCCCC3)cc21` [Example 1, (S)-4-(3-fluorobenzyl)-N-(5-methyl-4-oxo-7-(piperidine-1-carbonyl)-2,3,4,5-tetrahydrobenzo[b][1,4]oxazepin-3-yl)-1H-pyrazole-1-carboxamide], the IC50 in assay [1] and in assay [2] was 10 to 50 nM in each case.
In the case of `CN1C(=O)[C@@H](NC(=O)n2cc(Cc3cccc(F)c3)cn2)COc2ccc(OCc3ccc(F)cc3)cc21` [Example 57, (S)-4-(3-fluorobenzyl)-N-(7-((4-fluorobenzyl)oxy)-5-methyl-4-oxo-2,3,4,5-tetrahydrobenzo[b][1,4]oxazepin-3-yl)-1H-pyrazole-1-carboxamide], the IC50 in assay [1] and in assay [2] was < 10 nM throughout.
For the compound `CN1C(=O)[C@@H](NC(=O)n2cc(Cc3cccc(F)c3)cn2)COc2ccc(OCC(O)c3cccnc3)cc21` (stereo partly drawn) [Example 70, 4-(3-fluorobenzyl)-N-((3S)-7-(2-hydroxy-2-(pyridin-3-yl)ethoxy)-5-methyl-4-oxo-2,3,4,5-tetrahydrobenzo[b][1,4]oxazepin-3-yl)-1H-pyrazole-1-carboxamide], the IC50 in assay [1] and in assay [2] was < 10 nM each time.
Take `CN1C(=O)[C@@H](NC(=O)n2cc(Cc3cccc(F)c3)cn2)COc2ccc(C(=O)N3CCC(O)CC3)cc21` [Example 4, (S)-4-(3-fluorobenzyl)-N-(7-(4-hydroxypiperidine-1-carbonyl)-5-methyl-4-oxo-2,3,4,5-tetrahydrobenzo[b][1,4]oxazepin-3-yl)-1H-pyrazole-1-carboxamide]: the values for the IC50 in assay [1] and in assay [2] were 10 to 50 nM and < 10 nM, respectively.
On the same counts, the results for `CN1C(=O)[C@@H](NC(=O)n2cc(Cc3cccc(F)c3)cn2)COc2ccc(OCC(=O)N3CCC(C)(O)CC3)cc21` [Example 41, (S)-4-(3-fluorobenzyl)-N-(7-(2-(4-hydroxy-4-methylpiperidin-1-yl)-2-oxoethoxy)-5-methyl-4-oxo-2,3,4,5-tetrahydrobenzo[b][1,4]oxazepin-3-yl)-1H-pyrazole-1-carboxamide] are < 10 nM and < 10 nM.
As to `CN1C(=O)[C@@H](NC(=O)n2cc(Cc3cccc(F)c3)cn2)COc2ccc(OCCCC(C)(C)O)cc21` [Example 26, (S)-4-(3-fluorobenzyl)-N-(7-((4-hydroxy-4-methylpentyl)oxy)-5-methyl-4-oxo-2,3,4,5-tetrahydrobenzo[b][1,4]oxazepin-3-yl)-1H-pyrazole-1-carboxamide], the IC50 in assay [1] and in assay [2] was < 10 nM each time.
`CCN(CC(C)(C)O)C(=O)COc1ccc2c(c1)N(C)C(=O)[C@@H](NC(=O)n1cc(Cc3cccc(F)c3)cn1)CO2` [Example 53, (S)—N-(7-(2-(ethyl(2-hydroxy-2-methylpropyl)amino)-2-oxoethoxy)-5-methyl-4-oxo-2,3,4,5-tetrahydrobenzo[b][1,4]oxazepin-3-yl)-4-(3-fluorobenzyl)-1H-pyrazole-1-carboxamide]: the IC50 in assay [1] and in assay [2] was < 10 nM in each case.
With `CN1C(=O)[C@@H](NC(=O)n2cc(Cc3cccc(F)c3)cn2)COc2ccc(OCC(=O)N3CCC(O)CC3)cc21` [Example 40, (S)-4-(3-fluorobenzyl)-N-(7-(2-(4-hydroxypiperidin-1-yl)-2-oxoethoxy)-5-methyl-4-oxo-2,3,4,5-tetrahydrobenzo[b][1,4]oxazepin-3-yl)-1H-pyrazole-1-carboxamide], the IC50 in assay [1] and in assay [2] was < 10 nM throughout.
As to `CN1C(=O)[C@@H](NC(=O)n2cc(Cc3cccc(F)c3)cn2)COc2ccc(OCC(=O)N3CC[C@H](O)C3)cc21` [Example 46, 4-(3-fluorobenzyl)-N—((S)-7-(2-((S)-3-hydroxypyrrolidin-1-yl)-2-oxoethoxy)-5-methyl-4-oxo-2,3,4,5-tetrahydrobenzo[b][1,4]oxazepin-3-yl)-1H-pyrazole-1-carboxamide], the IC50 is 10 to 50 nM in assay [1] and < 10 nM in assay [2].
On the same counts, the results for `COc1cc(COc2ccc3c(c2)N(C)C(=O)[C@@H](NC(=O)n2cc(Cc4cccc(F)c4)cn2)CO3)ccn1` [Example 61, (S)-4-(3-fluorobenzyl)-N-(7-((2-methoxypyridin-4-yl)methoxy)-5-methyl-4-oxo-2,3,4,5-tetrahydrobenzo[b][1,4]oxazepin-3-yl)-1H-pyrazole-1-carboxamide] are < 10 nM and < 10 nM.
On the same counts, the results for `CN1C(=O)[C@@H](NC(=O)n2cc(Cc3cccc(F)c3)cn2)COc2ccc(OC3CCC(C)(C)CC3)cc21` [Example 31, (S)—N-(7-((4,4-dimethylcyclohexyl)oxy)-5-methyl-4-oxo-2,3,4,5-tetrahydrobenzo[b][1,4]oxazepin-3-yl)-4-(3-fluorobenzyl)-1H-pyrazole-1-carboxamide] are < 10 nM and < 10 nM.
For the compound `CC(C)CCCOc1ccc2c(c1)N(C)C(=O)[C@@H](NC(=O)n1cc(Cc3cccc(F)c3)cn1)CO2` [Example 15, (S)-4-(3-fluorobenzyl)-N-(5-methyl-7-((4-methylpentyl)oxy)-4-oxo-2,3,4,5-tetrahydrobenzo[b][1,4]oxazepin-3-yl)-1H-pyrazole-1-carboxamide], the IC50 in assay [1] and in assay [2] was < 10 nM throughout.
